Measurements reported in PubChem BioAssay AID256 (DTP/NCI, 2004).
“And” between values parts separate entries of the source, which are not always exact repeats. Identical values can stand only once. Toxic doses and inconclusive results are not listed.

Tested on: CD2F1 mice, L1210 leukemia ip, survival T/C
Test: NCI In Vivo Anticancer Drug Screen. Data for tumor model L1210 Leukemia (intraperitoneal) in CD2F1 (CDF1) mice
Conditions: endpoint: mean survival time, higher = longer survival
Outline: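 Implant tumor; dose compound or vehicle; measure endpoint in both groups; report treated divided by control.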

[1] = dose: 100.0 mg/kg/injection, schedule: Q01DX009 (ip), vehicle: Klucel (hydroxypropylcellulose) (HPC)
[2] = dose: 200.0 mg/kg/injection, schedule: Q01DX009 (ip), vehicle: Klucel (hydroxypropylcellulose) (HPC)
[3] = dose: 400.0 mg/kg/injection, schedule: Q01DX009 (ip), vehicle: Klucel (hydroxypropylcellulose) (HPC)
[4] = dose: 100.0 mg/kg/injection, schedule: Q04DX003 (ip), vehicle: saline with Tween-80
[5] = dose: 200.0 mg/kg/injection, schedule: Q04DX003 (ip), vehicle: saline with Tween-80
[6] = dose: 400.0 mg/kg/injection, schedule: Q04DX003 (ip), vehicle: saline with Tween-80
[7] = dose: 100.0 mg/kg/injection, schedule: Q04DX002 (ip), vehicle: saline with Tween-80
[8] = dose: 200.0 mg/kg/injection, schedule: Q04DX002 (ip), vehicle: saline with Tween-80
[9] = dose: 400.0 mg/kg/injection, schedule: Q04DX002 (ip), vehicle: saline with Tween-80
[10] = dose: 25.0 mg/kg/injection, schedule: Q01DX009 (ip), vehicle: saline
[11] = dose: 100.0 mg/kg/injection, schedule: Q01DX009 (ip), vehicle: saline with Tween-80
[12] = dose: 50.0 mg/kg/injection, schedule: Q01DX009 (ip), vehicle: saline
[13] = dose: 100.0 mg/kg/injection, schedule: Q01DX009 (ip), vehicle: saline
[14] = dose: 200.0 mg/kg/injection, schedule: Q01DX009 (ip), vehicle: saline with Tween-80
[15] = dose: 400.0 mg/kg/injection, schedule: Q01DX009 (ip), vehicle: saline with Tween-80
[16] = dose: 200.0 mg/kg/injection, schedule: Q01DX009 (ip), vehicle: saline

SMILES: CCOC1=C(C#N)CC2(CC1)c1ccccc1-c1ccccc12
- T/C (dose: 100.0 mg/kg/injection, schedule: Q04DX003 (ip), vehicle: Klucel (hydroxypropylcellulose) (HPC)): 96 % of control
- T/C (dose: 200.0 mg/kg/injection, schedule: Q04DX003 (ip), vehicle: Klucel (hydroxypropylcellulose) (HPC)): 102 % of control
- T/C (dose: 400.0 mg/kg/injection, schedule: Q04DX003 (ip), vehicle: Klucel (hydroxypropylcellulose) (HPC)): 101 % of control

SMILES: CC(=O)OC1C(OC(C)=O)C(OC(C)=O)C2OC(C)(C)OC2C1OC(C)=O (configuration not stated)
- T/C [1]: 96 % of control
- T/C [2]: 93 % of control
- T/C [3]: 100 % of control

SMILES: Nc1cc2c(c[n+](CCCCCCCC[n+]3cc4c5ccccc5c(N)cc4c4ccccc43)c3ccccc23)c2ccccc12
- T/C (dose: 0.78 mg/kg/injection, schedule: Q04DX003 (ip), vehicle: other): 114 % of control
- T/C (dose: 1.56 mg/kg/injection, schedule: Q04DX003 (ip), vehicle: other): 157 % of control
- T/C (dose: 3.13 mg/kg/injection, schedule: Q04DX003 (ip), vehicle: other): 124 % of control
- T/C (dose: 12.5 mg/kg/injection, schedule: Q04DX003 (ip), vehicle: other): 157 % of control
- T/C (dose: 50.0 mg/kg/injection, schedule: Q04DX003 (ip), vehicle: other): 124 % of control and 103 % of control

SMILES: CCN(CC)CCNc1c2ccc(Cl)cc2nc2c1c(C)nn2C
- T/C [4]: 95 % of control
- T/C [5]: 100 % of control
- T/C [6]: 100 % of control

SMILES: COc1ccc(OCc2ccc(OC)c(OC)c2)cc1
- T/C [7]: 91 % of control
- T/C [8]: 87 % of control
- T/C [9]: 91 % of control

SMILES: C[n+]1c(-c2cccc3ccccc23)c2cc(N)ccc2c2ccccc21
- T/C (dose: 0.78 mg/kg/injection, schedule: Q01DX009 (ip), vehicle: water): 106 % of control
- T/C (dose: 1.56 mg/kg/injection, schedule: Q01DX009 (ip), vehicle: saline): 108 % of control
- T/C (dose: 1.56 mg/kg/injection, schedule: Q01DX009 (ip), vehicle: water): 103 % of control
- T/C (dose: 3.12 mg/kg/injection, schedule: Q01DX009 (ip), vehicle: saline): 118 % of control
- T/C (dose: 3.13 mg/kg/injection, schedule: Q01DX009 (ip), vehicle: water): 111 % of control
- T/C (dose: 3.5 mg/kg/injection, schedule: Q01DX009 (ip), vehicle: water): 104 % of control
- T/C (dose: 5.3 mg/kg/injection, schedule: Q01DX009 (ip), vehicle: water): 106 % of control
- T/C (dose: 6.25 mg/kg/injection, schedule: Q01DX009 (ip), vehicle: saline): 106 % of control
- T/C (dose: 6.25 mg/kg/injection, schedule: Q01DX009 (ip), vehicle: water): 97 % of control and 110 % of control
- T/C (dose: 8.0 mg/kg/injection, schedule: Q01DX009 (ip), vehicle: water): 114 % of control
- T/C (dose: 12.0 mg/kg/injection, schedule: Q01DX009 (ip), vehicle: water): 121 % of control
- T/C (dose: 12.5 mg/kg/injection, schedule: Q01DX009 (ip), vehicle: saline): 116 % of control
- T/C (dose: 12.5 mg/kg/injection, schedule: Q01DX009 (ip), vehicle: water): 119 % of control and 122 % of control
- T/C (dose: 18.0 mg/kg/injection, schedule: Q01DX009 (ip), vehicle: water): 112 % of control
- T/C [10]: 93 % of control

SMILES: CCO/N=C(\C)CSC1=NCCN1
- T/C (dose: 75.0 mg/kg/injection, schedule: Q04DX003 (ip), vehicle: saline): 102 % of control
- T/C (dose: 150.0 mg/kg/injection, schedule: Q04DX003 (ip), vehicle: saline): 100 % of control

SMILES: CCCCC1CCC(NC(=O)Nc2ccccc2)CC1 (configuration not stated)
- T/C [4]: 113 % of control
- T/C [5]: 109 % of control
- T/C [6]: 105 % of control

SMILES: O=C(C[n+]1ccccc1)N/N=C/c1ccccc1Cl
- T/C [11]: 105 % of control

SMILES: CCOC(CCCO)OCC
- T/C [7]: 103 % of control
- T/C [8]: 100 % of control
- T/C [9]: 103 % of control

SMILES: CN(C)CCC(=O)c1ccccc1
- T/C [10]: 106 % of control
- T/C [12]: 95 % of control
- T/C [13]: 106 % of control

SMILES: O=P(NC1CCCCC1)(NC1CCCCC1)NC1CCCCC1
- T/C (dose: 50.0 mg/kg/injection, schedule: Q04DX003 (ip), vehicle: saline with Tween-80): 93 % of control
- T/C [4]: 90 % of control
- T/C [5]: 91 % of control

SMILES: Cc1cc(Nc2ccccc2)nc(C)n1
- T/C (dose: 12.5 mg/kg/injection, schedule: Q04DX002 (ip), vehicle: saline with Tween-80): 111 % of control
- T/C (dose: 25.0 mg/kg/injection, schedule: Q04DX002 (ip), vehicle: saline with Tween-80): 114 % of control

SMILES: N#CSCCSC#N
- T/C (dose: 2.5 mg/kg/injection, schedule: Q04DX003 (ip), vehicle: Klucel (hydroxypropylcellulose) (HPC)): 102 % of control
- T/C (dose: 5.0 mg/kg/injection, schedule: Q04DX003 (ip), vehicle: Klucel (hydroxypropylcellulose) (HPC)): 120 % of control
- T/C (dose: 10.0 mg/kg/injection, schedule: Q04DX003 (ip), vehicle: Klucel (hydroxypropylcellulose) (HPC)): 105 % of control

SMILES: COC(=O)C1CCC(N(C)S(=O)(=O)c2ccc(C)cc2)CC1 (configuration not stated)
- T/C [1]: 100 % of control
- T/C [2]: 96 % of control
- T/C [3]: 92 % of control

SMILES: C[n+]1ccc(Nc2ccc(NC(=O)c3ccc(Nc4ccnc5ccc([N+](=O)[O-])cc45)cc3[N+](=O)[O-])cc2)cc1
- T/C (dose: 100.0 mg/kg/injection, schedule: Q01DX001 (ip), vehicle: saline with Tween-80): 96 % of control
- T/C (dose: 200.0 mg/kg/injection, schedule: Q01DX001 (ip), vehicle: saline with Tween-80): 95 % of control
- T/C (dose: 400.0 mg/kg/injection, schedule: Q01DX001 (ip), vehicle: saline with Tween-80): 93 % of control

SMILES: Nc1cc2c(cc1Br)-c1ccccc1C2Br (configuration not stated)
- T/C [4]: 94 % of control
- T/C [6]: 92 % of control

SMILES: O=[N+]([O-])c1cccc(/C=C/C=C/c2cccc(S(=O)(=O)F)c2)c1
- T/C [11]: 100 % of control
- T/C [4]: 93 % of control
- T/C [14]: 93 % of control
- T/C [5]: 96 % of control
- T/C [15]: 95 % of control
- T/C [6]: 90 % of control

SMILES: [I][Pt+2][I].[NH-]c1ccccc1F.[NH-]c1ccccc1F
- T/C (dose: 3.13 mg/kg/injection, schedule: Q04DX003 (ip), vehicle: distilled water + Tween-80): 98 % of control
- T/C (dose: 6.25 mg/kg/injection, schedule: Q04DX003 (ip), vehicle: distilled water + Tween-80): 101 % of control
- T/C (dose: 12.5 mg/kg/injection, schedule: Q04DX003 (ip), vehicle: distilled water + Tween-80): 98 % of control
- T/C (dose: 25.0 mg/kg/injection, schedule: Q04DX003 (ip), vehicle: distilled water + Tween-80): 101 % of control
- T/C (dose: 50.0 mg/kg/injection, schedule: Q04DX003 (ip), vehicle: distilled water + Tween-80): 102 % of control
- T/C (dose: 100.0 mg/kg/injection, schedule: Q04DX003 (ip), vehicle: distilled water + Tween-80): 98 % of control
- T/C (dose: 200.0 mg/kg/injection, schedule: Q04DX003 (ip), vehicle: distilled water + Tween-80): 101 % of control

SMILES: Nc1c(Cl)c(Cl)nc(C(=O)O)c1Cl
- T/C (dose: 25.0 mg/kg/injection, schedule: Q01DX009 (ip), vehicle: Klucel (hydroxypropylcellulose) (HPC)): 98 % of control
- T/C (dose: 25.0 mg/kg/injection, schedule: Q01DX009 (ip), vehicle: saline with Tween-80): 100 % of control
- T/C (dose: 50.0 mg/kg/injection, schedule: Q01DX009 (ip), vehicle: Klucel (hydroxypropylcellulose) (HPC)): 98 % of control
- T/C (dose: 50.0 mg/kg/injection, schedule: Q01DX009 (ip), vehicle: saline with Tween-80): 94 % of control
- T/C [12]: 97 % of control
- T/C [1]: 90 % of control
- T/C [11]: 97 % of control
- T/C [13]: 97 % of control
- T/C [2]: 100 % of control
- T/C [14]: 97 % of control
- T/C [16]: 101 % of control
- T/C [15]: 101 % of control

SMILES: Cc1cc(=O)c(C(=O)NC/C(C#N)=C\c2ccccc2)c(C)[nH]1
- T/C [7]: 93 % of control
- T/C [9]: 100 % of control

SMILES: CCSSCCN
- T/C [13]: 94 % of control
- T/C (dose: 100.0 mg/kg/injection, schedule: Q04DX003 (ip), vehicle: saline): 93 % of control
- T/C [16]: 93 % of control
- T/C (dose: 200.0 mg/kg/injection, schedule: Q04DX003 (ip), vehicle: saline): 89 % of control
- T/C (dose: 400.0 mg/kg/injection, schedule: Q01DX009 (ip), vehicle: saline): 102 % of control
- T/C (dose: 400.0 mg/kg/injection, schedule: Q04DX003 (ip), vehicle: saline): 97 % of control

SMILES: CC(C)CC#N
- T/C [11]: 100 % of control
- T/C [4]: 101 % of control
- T/C [5]: 104 % of control
- T/C [6]: 104 % of control
